# The source made the active and inactive calls.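 Rule for the calls: active = AC50 no more than ten times the top concentration tested, that is within one log above it; inconclusive = flat curve fit with activity between 30% and 70%, or invalid poor fit; inactive = AC50 beyond ten times the top tested dose.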
# System: S. cerevisiae Mot1-301 ts growth rescue, BacTiter-Glo ATP luminescence
# Test: growth rescue of Mot1-301 ts yeast, confirmation, SUMOylation pathway inhibitor project, whole organism, S. cerevisiae, Mot1-301 ts mutant, luminescence, dose retest (AID 463204);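 note: growth at restrictive 38.5 degrees C of Mot1-301 OY566 strain; actives raise luminescence by restoring growth of the ts mutant at high temperature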
row,SMILES,AC50
1,CC[n+]1c(/C=C/N(C)c2ccccc2)n(-c2ccccc2)c2ccc(-c3nc4ccccc4s3)cc21,19.6 µM
2,CN(C(=O)CSc1nc(-c2ccccc2)c(-c2ccccc2)o1)C1CCS(=O)(=O)C1 (centres undefined),> 42 µM (inactive)
3,Cc1cccc(C)c1NS(=O)(=O)c1ccc(OCCNS(C)(=O)=O)cc1,> 42 µM (inactive)
4,Cc1c(NC(=O)c2ccc(N(C)S(C)(=O)=O)cc2)c(=O)n(-c2ccccc2)n1C,> 42 µM (inactive)
5,O=C(c1cc(N2C(=O)C3C4CCC(C4)C3C2=O)ccc1Cl)N1CCCCCC1 (centres undefined),> 42 µM (inactive)
6,CSCCc1nc(SCC(=O)Nc2nnc(C)s2)[nH]c1C,> 42 µM (inactive)
7,CS(=O)(=O)N(CC(=O)N1CCN(c2ccccc2F)CC1)C1CCCCC1,> 42 µM (inactive)
8,O=C(COC(=O)C1CC(=O)N(Cc2ccccc2)C1)Nc1ccccc1F (centres undefined),> 21 µM (inactive)
9,Cc1cccn2c(=O)c3cc(C(=O)NCc4cccnc4)c(=N)n(C(C)C)c3nc12,> 42 µM (inactive)
10,Cc1cc(NC(=O)CC2CCCC2)ccc1Br,> 42 µM (inactive)
11,CCOc1ccc(Br)cc1CNCCN1CCOCC1,> 42 µM (inactive)
12,CN(C)S(=O)(=O)c1cccc(NC(=O)C(c2ccccc2)c2ccccc2)c1,> 42 µM (inactive)
13,CC1CCCCN1C(=O)C(Cc1ccccc1)N1C(=O)C2CCCCC2C1=O (centres undefined),32.5 µM
14,CC1(C)C(C=C(Cl)Cl)C1C(=O)OCc1cccc(Oc2ccccc2)c1 (centres undefined),> 42 µM (inactive)
15,CCOC(=O)NNC(=O)CCn1c2c(c3ccccc31)CCCC2,> 42 µM (inactive)
16,O=C(CSc1nc(O)cc(=O)n1-c1ccccc1)NC1CCCCC1,> 42 µM (inactive)
17,Cc1ccc2nc(NC(=O)C3CCN(S(=O)(=O)c4cccnc4)CC3)sc2c1,> 42 µM (inactive)
18,CCn1c(SCC(N)=O)nnc1-c1cc2c(C)nn(-c3ccccc3)c2s1,> 42 µM (inactive)
19,Cc1ccc(NC(=O)COC(=O)c2csc3c2CCC(C)C3)cc1S(=O)(=O)N1CCCCC1 (centres undefined),> 42 µM (inactive)
20,CN=C(Nc1cccnc1)c1ccccc1,> 42 µM (inactive)
21,CCCCn1c(=O)[nH]c(=O)c2c1nc(COc1ccc(C#N)cc1)n2CCC,> 42 µM (inactive)
22,Cc1nc(CCNC(=O)c2ccccc2)cs1,> 42 µM (inactive)
23,COc1cc2ccccc2cc1C(=O)Nc1ccc(CN2CCOCC2)cc1,> 42 µM (inactive)
24,C=CSc1sc(Cl)c(N(C)C)c1[N+](=O)[O-],> 42 µM (inactive)
25,CCc1ccc2[nH]c(=O)c(C(c3nnnn3Cc3ccccc3)N3CCOCC3)cc2c1 (centres undefined),> 42 µM (inactive)

row,SMILES,AC50
1,Nc1nc2ccccc2cc1-c1cccs1,> 42 µM (inactive)
2,Cc1c(C(=O)N2CCN(CCc3ccccc3)CC2)oc2ccccc12,> 42 µM (inactive)
3,COc1cc(C)ccc1OCCCOc1ccccc1Br,> 42 µM (inactive)
4,Cc1ccc(S(=O)(=O)Nc2n[nH]nc2C(=O)NC2CCCCC2)cc1,> 42 µM (inactive)
5,CC1(C)CC(=O)C(C=Nc2ccc(O)c(N=CC3=C(O)CC(C)(C)CC3=O)c2)=C(O)C1,> 42 µM (inactive)
6,CCN1CSC(=S)N(Cc2ccc(OC)cc2)C1,4.01 µM
7,COc1cccc(C2/C(=C(/O)c3ccccc3)C(=O)C(=O)N2Cc2ccco2)c1 (centres undefined),> 42 µM (inactive)
8,Cc1ccc(N(C(=O)Cn2nnc3ccccc32)C(C(=O)NC2CCCCC2)c2cn(C)nc2C)cc1 (centres undefined),> 21 µM (inactive)
9,N#Cc1cc2c(nc1SC1CCCCC1O)CCCC2 (centres undefined),> 42 µM (inactive)
10,S=c1[nH]nc(-c2ccco2)n1-c1ccc(Br)cc1,> 42 µM (inactive)
11,CN(C(=O)COC(=O)c1cc2ccccc2cc1O)c1c(N)n(Cc2ccccc2)c(=O)[nH]c1=O,> 42 µM (inactive)
12,CC1CCCC(N2C(=O)NC(NC(=O)c3ccco3)(C(F)(F)F)C2=O)C1C (centres undefined),> 42 µM (inactive)
13,COc1ccc(C2=C(N)c3ccccc3C2=O)cc1,> 42 µM (inactive)
14,COc1cc(C(=O)N/N=C/c2ccccn2)cc(OC)c1OC,> 42 µM (inactive)
15,CC1=CC(C)(C)N2C(=O)C3(NCCc4c3[nH]c3ccccc43)c3cc(C)cc1c32 (centres undefined),5.51 µM
16,CN(CCOc1ccc(Cl)cc1)CC(=O)Nc1ccc(OC(F)F)cc1,> 42 µM (inactive)
17,O=C(O)c1cccc(NC(=O)c2cccc(S(=O)(=O)Nc3cccc([N+](=O)[O-])c3)c2)c1,> 42 µM (inactive)
18,CC(C)C(=O)NNc1ccc(C(F)(F)F)cn1,> 42 µM (inactive)
19,O=C(CN1CCc2ccccc21)NN1CC(=O)N(c2ccc(Cl)cc2)CC1=O,> 42 µM (inactive)
20,CN(C)C(=O)c1cc(C(=O)c2ccc(C(F)(F)F)cc2F)c[nH]1,> 42 µM (inactive)
21,O=c1oc2cc(S(=O)(=O)NCCCO)ccc2c2ccc(S(=O)(=O)NCCCO)cc12,> 42 µM (inactive)
22,COc1ccccc1/C=C/C(=O)N1CCc2cc(OC)c(OC)cc2C1C (centres undefined),> 42 µM (inactive)
23,CCN(CC)C(=O)Cn1c(=O)n(CCCC(=O)NCc2ccccc2)c(=O)c2sccc21,> 42 µM (inactive)
24,O=C(Nc1ccc2oc(-c3ccccc3F)nc2c1)c1ncn[nH]1,> 42 µM (inactive)
25,CCc1c(C)nc(N2CCN(Cc3ccccc3)CC2)[nH]c1=O,> 42 µM (inactive)

row,SMILES,AC50
1,O=C(NCC1CCCO1)c1nn2c(C(F)(F)F)cc(-c3cc(Br)cs3)nc2c1Br (centres undefined),> 42 µM (inactive)
2,O=C(Nc1ccc(Cl)cc1)C1=Cc2ccccc2OC1,40.9 µM
3,Cc1ccc(N(CC(=O)Nc2cccc(C)c2)S(=O)(=O)c2cccc3nonc23)cc1,> 21 µM (inactive)
4,COc1ccc(-c2cn(-c3ccc(C)cc3)c(=O)n2CC(=O)Nc2ccc(OC)c(OC)c2)cc1,> 42 µM (inactive)
5,COc1ccccc1NS(=O)(=O)c1cc(Cl)ccc1OC,> 42 µM (inactive)
6,CCNC(=O)/C(C#N)=C/c1c(N2CCCCCC2)nc2ccccn2c1=O,> 42 µM (inactive)
7,CCNCCNC(=O)c1c(O)c2c([nH]c1=O)CCCC2,> 42 µM (inactive)
8,CN1C(C(=O)Nc2ccccn2)=C(O)c2sccc2S1(=O)=O,> 42 µM (inactive)
9,C#CCn1c(=NC(=O)CN2C(=O)CCC2=O)sc2cccc(OC)c21,> 42 µM (inactive)
10,c1ccc(CNc2ncnc3sc4c(c23)CCC4)nc1,> 42 µM (inactive)
11,COc1cccc(NC(=O)CNC(=O)c2ccc(C)cc2)c1,> 42 µM (inactive)
12,OC(c1ccccc1)(C1CCCCC1)C(CN1CCOCC1)c1ccccc1 (centres undefined),13.9 µM
13,CC1=CS(=O)(=O)CC1Sc1ncn[nH]1 (centres undefined),> 42 µM (inactive)
14,CCCCCCNc1c(C(=O)OCC)c(=O)[nH]c2ccccc12,> 42 µM (inactive)
15,Cc1cc(C)c(NC(=O)CNC(=O)c2cc([N+](=O)[O-])ccc2N2CCOCC2)c(C)c1,> 42 µM (inactive)
16,CC1CC(N(C(=O)c2ccccc2Cl)c2ccccc2)c2ccccc2N1 (centres undefined),> 42 µM (inactive)
17,CC(=O)Nc1cccc(OCC(=O)NS(=O)(=O)c2ccc(C)cc2)c1,> 42 µM (inactive)
18,Cc1nc2sc(C(c3ccccc3)N3CCC(O)CC3)c(O)n2n1 (centres undefined),> 42 µM (inactive)
19,CCc1c(C(=O)N2CCN(c3ccccc3F)CC2)[nH]c(C)c1C(C)=O,> 42 µM (inactive)
20,CCC(=O)Nc1ccc(S(=O)(=O)NCc2ccco2)cc1,> 42 µM (inactive)
21,COc1ccc(-c2cc(CC3(C(=O)O)CCN(C(=O)OC(C)(C)C)CC3)on2)c(OC)c1,> 42 µM (inactive)
22,O=C(c1ccco1)N1CCN(C(=O)C2Cc3ccccc3CN2S(=O)(=O)c2ccc(F)cc2)CC1 (centres undefined),> 42 µM (inactive)
23,NS(=O)(=O)c1cccc(NC(=O)c2cccnc2Oc2ccccc2)c1,> 42 µM (inactive)
24,COc1cc(C(=O)NCCOc2cc(C)cc(C)c2)cc(OC)c1OC,> 42 µM (inactive)
25,CC(CN1CCCCCC1)C(=O)NN (centres undefined),> 42 µM (inactive)

row,SMILES,AC50
1,C/C(=N\N=C(c1ccccc1)c1ccccc1)c1ccco1,> 42 µM (inactive)
2,Cc1sc(-n2c(C)cc(C=C3C(=O)NC(=O)NC3=O)c2C)c(C#N)c1C,> 42 µM (inactive)
3,O=C(CN1CCN(Cc2ccc(Cl)cc2)CC1)N/N=C/c1ccncc1,> 42 µM (inactive)
4,COC(=O)/C=C\C(=O)Nc1cccc([N+](=O)[O-])c1,2.95 µM
5,CCN(CC)S(=O)(=O)c1ccc(C(=O)NCCc2cc3c(OC)ccc(OC)c3[nH]c2=O)cc1,> 42 µM (inactive)
6,CC(C)C(O)(C(=O)NNc1ccccc1)C(C)C,> 42 µM (inactive)
7,CCC(=O)N1c2ccc(S(=O)(=O)N3CCN(c4ccc([N+](=O)[O-])cc4)CC3)cc2CC1C (centres undefined),> 42 µM (inactive)
8,CC(C)CCOCc1nc2sc3c(c2c(=O)[nH]1)CCC(C)C3 (centres undefined),> 42 µM (inactive)
9,Cn1c(SCC(=O)Nc2nnc(-c3ccccc3)o2)nnc1C1CC1,> 42 µM (inactive)
10,CC1CCN(CCCCOc2cccc(C(C)C)c2)CC1,> 42 µM (inactive)
11,Cc1ccc(S(=O)(=O)NCC(C)n2cncn2)cc1 (centres undefined),> 42 µM (inactive)
12,O=C(CNC(=O)c1ccco1)OCC(=O)c1cccc2ccccc12,> 42 µM (inactive)
13,CCOC(=O)C(C)(C)Sc1nc2c(cnn2-c2ccc(C)cc2)c(=O)[nH]1,> 42 µM (inactive)
14,Cc1ccc(S(=O)(=O)N2CCOCC2)cc1NC(=O)COC(=O)CCC(=O)c1cccs1,> 42 µM (inactive)
15,CCOC(=O)c1c(/N=C/C2C(=O)CCCC2=O)sc2c1CCCC2,> 42 µM (inactive)
16,Cc1cc(Nc2nc3c(c(=O)n(C)c(=O)n3C)n2C)n(-c2ccc(Cl)cc2)n1,> 42 µM (inactive)
17,CC(Cc1ccc(O)c(O)c1)C(C)Cc1ccc(O)c(O)c1 (centres undefined),> 42 µM (inactive)
18,N#Cc1ccc(Oc2ccc(S(=O)(=O)N3CCCCC3)cn2)cc1,> 42 µM (inactive)
19,O=C(CSc1cccc[n+]1[O-])N1CCc2ccccc21,> 42 µM (inactive)
20,Cn1c(-c2sc3cc(C(F)(F)F)cnc3c2-c2cccs2)n[nH]c1=S,> 42 µM (inactive)
21,COc1ccc(-c2csc(NC(=O)C3CSC4(C)CCC(=O)N34)n2)cc1 (centres undefined),> 42 µM (inactive)
22,COc1ccc(NC(=S)Nc2ccccc2OC)c(OC)c1,> 42 µM (inactive)
23,COC(=O)C1C(c2ccc(OC)c(OC)c2)NC(c2ccc(OC)c(OC)c2)C(C(=O)OC)S1(=O)=O (centres undefined),> 42 µM (inactive)
24,CNC(=O)c1ccccc1NC(=O)c1c(O)c2c([nH]c1=O)CCCC2,> 42 µM (inactive)
